The record followed here is US12365655B2, “Compounds” (CTXT PTY LTD, priority 2018, dated 2025).

In assay [1] the target is T1, QKF-KAT6B (Homo sapiens, UniProt Q8WYB5).
T1 construct: purchased SignalChem K315-381BG
The assay can be described thus: Acetyltransferase biochemical assay (AlphaScreen), KAT6B. The following applies: 8 nM KAT6B, 1 μM AcCoA, 100 nM histone H3.1. An excerpt: KAT6B was obtained from SignalChem, catalog ID: K315-381BG
In general terms: Alpha assays give light when donor and acceptor beads are brought close together.

Assay [2] concerns acetylation of the histone H3K23 marker in U2OS cells. The assay can be described thus: Histone H3 Lysine 23 Acetylation Biomarker Assay. In kind it is cell-based. The following applies: Homo sapiens, 24 hours incubation, read-out: IC50, inhibition of histone H3K23 acetylation. The procedure:
Compounds were tested for their ability to inhibit acetylation of the histone H3K23 marker in the following assay:
The cell line U2OS was seeded at a density of 9,000 cells per well in 96 well optical quality tissue culture plates in RPMI medium and 10% foetal bovine serum, and allowed to adhere for 24 hours under standard culture conditions (37 degree Celsius, 5% CO2). At the end of this period the medium was aspirated. […] After incubation for 24 hours, the cells were fixed with 3.7% formaldehyde in PBS for 20 minutes at room temperature, washed (5×5 minutes) with phosphate buffer saline containing 0.1% Tween 20 and blocked with Odyssey blocking buffer (LI-COR, Lincoln, Nebr.) containing 0.1% TritonX100. Anti-H3K23ac specific antibody (Abcam ab177275) in Odyssey blocking buffer containing 0.1% Tween 20 was added and incubated for 16 hours at 4 degree Celsius. After washing (as above), a secondary antibody labelled with Alexa647 dye (LifeTechnologies) and Hoechst 33342 (1 μg/mL, SigmaAldrich) were added for 1 hour incubation. Plates were washed as previously and read on a PerkinElmer Phenix high content imaging platform. Using a Columbus image analysis pipeline, individual nuclei were located by Hoechst 33342 stain and the acetylation level was calculated from the Alexa647-related intensity in the same area.

Assay [3] has as its system acetylation of the histone H3 Lysine 14 marker in U2OS cells. Put plainly: Histone H3 Lysine 14 Acetylation Biomarker Assay. The note with it: Homo sapiens, serum free medium, 24 hours incubation, read-out: IC50, inhibition of histone H3 Lysine 14 acetylation. It counts as cell-based. The procedure: Compounds were tested for their ability to inhibit acetylation of the histone H3 Lysine 14 marker in the following assay:
The cell line U2OS was seeded at a density of 3,000 cells per well in 384-well optical quality tissue culture plates in RPMI medium supplemented with 10% foetal bovine serum and 10 mM Hepes. The cells were allowed to adhere for 24 hours under standard culture conditions (37 degree Celsius, 5% CO2). At the end of this period the cells were washed with serum free medium. […] After incubation for 24 hours, the cells were fixed with 4% formaldehyde in PBS for 15 minutes at room temperature, washed with phosphate buffer saline and blocked with blocking buffer containing 0.2% TritonX100 and 2% BSA. Anti-H3K14ac specific antibody (Cell Signalling Technologies) in blocking buffer was added and incubated overnight at 4 degree Celsius. After washing, a secondary antibody labelled with AlexaFluor 488 dye (ThermoFisher) and Hoechst 33342 (1 μg/mL, Life Technologies) were added for 2 hours incubation at room temperature. Plates were washed and read on a PerkinElmer Opera HCS high content imaging platform. Using a Columbus image analysis pipeline, individual nuclei were located by Hoechst 33342 stain and the acetylation level was calculated from the AlexaFluor 488-related intensity in the same area.

Assay [4] concerns histone H2A.Z Lysine 7 acetylation marker in U2OS cells. Put plainly: H2A.Z Lysine 7 Acetylation Biomarker Assay. In kind it is cell-based. The following applies: Homo sapiens, serum free medium, 24 hours incubation, read-out: IC50, inhibition of histone H2A.Z Lysine 7 acetylation. As for the experimental part: Compounds were tested for their ability to inhibit the histone H2A.Z Lysine 7 acetylation marker in the following assay:
The cell line U2OS was seeded at a density of 3,000 cells per well in 384-well optical quality tissue culture plates in RPMI medium supplemented with 10% foetal bovine serum and 10 mM Hepes. The cells were allowed to adhere for 24 hours under standard culture conditions (37 degree Celsius, 5% CO2). At the end of this period the cells were washed with serum free medium. […] 2018, at 30 μM concentration. After incubation for 24 hours, the cells were fixed with 4% formaldehyde in PBS for 15 minutes at room temperature, washed with phosphate buffer saline and blocked with blocking buffer containing 0.2% TritonX100 and 2% BSA. Anti-H2A.ZK7ac specific antibody (Abcam) in blocking buffer was added and incubated overnight at 4 degree Celsius. After washing, a secondary antibody labelled with AlexaFluor 488 dye (ThermoFisher) and Hoechst 33342 (1 μg/mL, Life Technologies) were added for 2 hours incubation at room temperature. Plates were washed and read on a PerkinElmer Opera HCS high content imaging platform. Using a Columbus image analysis pipeline, individual nuclei were located by Hoechst 33342 stain and the acetylation level was calculated from the AlexaFluor 488-related intensity in the same area.

Assay [5] concerns the target TIP60-KAT5 (Homo sapiens, UniProt Q92993). The assay can be described thus: Acetyltransferase biochemical assay (AlphaScreen), KAT5.
Assay [6] has as its target HBO-KAT7 (Homo sapiens, UniProt O95251). The assay can be described thus: Acetyltransferase biochemical assay (AlphaScreen), KAT7.
In assay [7] the target is MOZ-KAT6A (Homo sapiens, UniProt Q92794, A567V). Put plainly: Acetyltransferase biochemical assay (AlphaScreen), KAT6A.
Sequence of MOZ-KAT6A (Q92794 with tags, fused parts or gaps A567V): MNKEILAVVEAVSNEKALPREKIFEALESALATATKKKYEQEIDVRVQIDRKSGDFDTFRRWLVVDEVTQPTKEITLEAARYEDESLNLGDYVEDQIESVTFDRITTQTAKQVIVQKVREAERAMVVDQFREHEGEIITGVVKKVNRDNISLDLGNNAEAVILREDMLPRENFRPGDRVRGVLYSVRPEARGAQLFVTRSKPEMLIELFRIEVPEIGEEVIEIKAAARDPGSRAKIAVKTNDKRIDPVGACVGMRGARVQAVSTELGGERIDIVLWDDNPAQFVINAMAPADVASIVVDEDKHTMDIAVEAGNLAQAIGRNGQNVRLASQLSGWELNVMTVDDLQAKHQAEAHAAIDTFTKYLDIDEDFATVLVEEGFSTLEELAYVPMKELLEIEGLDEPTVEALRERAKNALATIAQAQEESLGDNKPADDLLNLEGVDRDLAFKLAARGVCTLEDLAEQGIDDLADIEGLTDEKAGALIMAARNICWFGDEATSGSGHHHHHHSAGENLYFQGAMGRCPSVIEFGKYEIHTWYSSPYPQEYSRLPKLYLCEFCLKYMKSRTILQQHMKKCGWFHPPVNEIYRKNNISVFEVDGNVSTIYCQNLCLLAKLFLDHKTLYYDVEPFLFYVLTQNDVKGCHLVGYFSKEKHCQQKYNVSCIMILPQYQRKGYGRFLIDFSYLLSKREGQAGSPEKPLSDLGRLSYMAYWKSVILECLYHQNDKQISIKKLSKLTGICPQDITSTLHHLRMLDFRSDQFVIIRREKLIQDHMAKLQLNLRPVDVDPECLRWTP

Where only a bound is given, the exact number is not on record here.

Sequence of HBO-KAT7 (O95251 with tags, fused parts or gaps): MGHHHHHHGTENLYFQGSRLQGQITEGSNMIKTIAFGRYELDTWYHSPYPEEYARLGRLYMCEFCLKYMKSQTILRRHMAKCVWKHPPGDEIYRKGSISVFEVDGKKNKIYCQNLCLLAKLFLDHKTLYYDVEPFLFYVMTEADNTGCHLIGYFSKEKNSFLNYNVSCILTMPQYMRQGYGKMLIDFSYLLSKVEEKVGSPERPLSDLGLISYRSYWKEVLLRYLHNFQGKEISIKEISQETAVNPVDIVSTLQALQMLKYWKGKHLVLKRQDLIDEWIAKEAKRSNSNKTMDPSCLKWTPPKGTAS
Sequence of TIP60-KAT5 (Q92993 with tags, fused parts or gaps isoform Q92993-2): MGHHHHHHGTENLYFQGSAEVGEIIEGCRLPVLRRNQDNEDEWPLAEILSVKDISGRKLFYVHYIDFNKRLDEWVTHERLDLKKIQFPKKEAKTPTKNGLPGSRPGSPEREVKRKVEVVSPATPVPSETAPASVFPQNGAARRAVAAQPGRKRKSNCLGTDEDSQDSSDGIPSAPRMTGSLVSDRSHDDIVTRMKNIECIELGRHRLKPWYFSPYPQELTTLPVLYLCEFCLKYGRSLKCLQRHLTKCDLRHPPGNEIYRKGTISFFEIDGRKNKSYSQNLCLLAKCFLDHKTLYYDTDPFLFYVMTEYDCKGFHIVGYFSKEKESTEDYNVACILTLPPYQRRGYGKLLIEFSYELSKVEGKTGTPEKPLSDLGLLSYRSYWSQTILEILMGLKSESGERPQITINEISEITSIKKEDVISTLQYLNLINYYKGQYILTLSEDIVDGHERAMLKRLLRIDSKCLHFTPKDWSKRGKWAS
T1 sequence (Q8WYB5 whole entry): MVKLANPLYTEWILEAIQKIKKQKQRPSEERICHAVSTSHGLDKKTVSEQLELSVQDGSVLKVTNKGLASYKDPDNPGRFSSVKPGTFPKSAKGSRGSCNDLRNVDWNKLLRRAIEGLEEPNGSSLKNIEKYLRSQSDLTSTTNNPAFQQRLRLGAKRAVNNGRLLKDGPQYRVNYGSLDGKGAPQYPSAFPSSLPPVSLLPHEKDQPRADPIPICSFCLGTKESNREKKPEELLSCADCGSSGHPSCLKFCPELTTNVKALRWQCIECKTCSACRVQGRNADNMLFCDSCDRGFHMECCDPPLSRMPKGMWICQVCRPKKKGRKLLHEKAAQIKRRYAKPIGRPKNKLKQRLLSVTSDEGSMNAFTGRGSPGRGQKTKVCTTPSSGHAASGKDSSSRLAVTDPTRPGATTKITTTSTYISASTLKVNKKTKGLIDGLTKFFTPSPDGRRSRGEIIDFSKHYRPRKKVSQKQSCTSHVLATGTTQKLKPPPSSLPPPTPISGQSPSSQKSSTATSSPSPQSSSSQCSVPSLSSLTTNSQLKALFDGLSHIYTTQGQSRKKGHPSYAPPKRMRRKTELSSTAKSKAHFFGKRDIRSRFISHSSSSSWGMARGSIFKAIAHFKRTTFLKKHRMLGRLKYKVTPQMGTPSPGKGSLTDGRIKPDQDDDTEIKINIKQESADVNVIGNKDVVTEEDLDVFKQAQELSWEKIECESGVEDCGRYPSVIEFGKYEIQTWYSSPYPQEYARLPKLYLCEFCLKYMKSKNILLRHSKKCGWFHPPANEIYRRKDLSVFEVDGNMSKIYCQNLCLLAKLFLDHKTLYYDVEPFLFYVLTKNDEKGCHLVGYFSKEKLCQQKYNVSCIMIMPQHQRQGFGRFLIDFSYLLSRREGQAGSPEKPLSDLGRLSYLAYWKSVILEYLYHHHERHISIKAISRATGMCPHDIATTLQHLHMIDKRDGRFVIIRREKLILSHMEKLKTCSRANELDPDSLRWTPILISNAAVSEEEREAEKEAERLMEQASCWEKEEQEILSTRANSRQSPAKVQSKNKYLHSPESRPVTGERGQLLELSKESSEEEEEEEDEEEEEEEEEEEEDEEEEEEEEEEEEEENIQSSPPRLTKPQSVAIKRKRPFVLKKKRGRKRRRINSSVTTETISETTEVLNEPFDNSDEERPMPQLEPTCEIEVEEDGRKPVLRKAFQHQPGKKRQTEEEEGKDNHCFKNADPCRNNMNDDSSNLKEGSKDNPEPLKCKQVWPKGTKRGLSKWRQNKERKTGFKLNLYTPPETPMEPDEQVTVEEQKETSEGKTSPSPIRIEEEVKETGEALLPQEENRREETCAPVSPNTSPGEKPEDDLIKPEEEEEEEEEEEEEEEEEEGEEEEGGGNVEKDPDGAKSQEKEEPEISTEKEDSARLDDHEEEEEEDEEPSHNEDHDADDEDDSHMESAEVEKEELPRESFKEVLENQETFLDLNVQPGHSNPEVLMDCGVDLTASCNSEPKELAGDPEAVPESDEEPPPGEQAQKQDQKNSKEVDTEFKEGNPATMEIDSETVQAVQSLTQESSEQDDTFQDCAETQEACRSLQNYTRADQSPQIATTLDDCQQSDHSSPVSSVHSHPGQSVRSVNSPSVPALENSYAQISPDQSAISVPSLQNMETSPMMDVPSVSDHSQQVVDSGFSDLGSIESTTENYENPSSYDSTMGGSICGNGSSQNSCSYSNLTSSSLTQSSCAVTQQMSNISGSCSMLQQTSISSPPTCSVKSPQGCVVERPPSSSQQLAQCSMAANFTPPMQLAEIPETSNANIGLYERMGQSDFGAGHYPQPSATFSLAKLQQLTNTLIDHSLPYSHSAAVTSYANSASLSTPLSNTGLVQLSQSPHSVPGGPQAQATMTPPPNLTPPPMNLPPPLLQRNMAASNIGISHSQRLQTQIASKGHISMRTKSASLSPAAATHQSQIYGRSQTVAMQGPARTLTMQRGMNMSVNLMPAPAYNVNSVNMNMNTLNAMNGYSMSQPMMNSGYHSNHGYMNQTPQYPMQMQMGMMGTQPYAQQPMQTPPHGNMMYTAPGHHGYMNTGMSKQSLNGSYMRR

In general, IC50 refers to the concentration that inhibits the measured activity by half. Regarding `COc1cccc(-c2cc(OC)c3c(NS(=O)(=O)c4c(OC)cccc4OC)noc3c2)c1` [Example 177, 2,6-Dimethoxy-N-(4-methoxy-6-(3-methoxyphenyl)benzo[d]isoxazol-3-yl)benzenesulfonamide], the 50% inhibitory concentration (IC50) in assay [1] was found to be 92 nM; in assay [2] it was 1490 nM; in assay [3], 135 nM; in assay [4], 1090 nM; in assay [5], 7080 nM; in assay [6] it was 21 nM. Moreover, the IC50 in assay [7] is 127 nM.

As to `COc1cccc(OC)c1S(=O)(=O)Nc1noc2cc(-c3cccc(O)c3)cc(OC)c12` [Example 92], the IC50 in assay [1] stood at 53 nM; in assay [2], 13 nM; in assay [3], 703 nM; in assay [4] it was 4620 nM; in assay [5] it was 1390 nM; in assay [6], 60 nM. This compound also showed an IC50 in assay [7] of 6 nM.

Take `COCc1cc2onc(NS(=O)(=O)c3c(OC)cccc3OC)c2cc1C` [Example 97, 2,6-Dimethoxy-N-(6-(methoxymethyl)-5-methylbenzo[d]isoxazol-3-yl)benzenesulfonamide]: the IC50 is 49 nM in assay [1]; 45 nM in assay [2]; 1090 nM in assay [3]; 28000 nM in assay [4]; 6180 nM in assay [5]; 444 nM in assay [6]. The compound further came in with an IC50 in assay [7] of 61 nM.

As for `COCc1cc(OC)c2c(NS(=O)(=O)c3c(OC)cc(-c4ccccc4)cc3OC)noc2c1` [Example 91, 3,5-Dimethoxy-N-(4-methoxy-6-(methoxymethyl)benzo [d]isoxazol-3-yl)-[1,1-biphenyl]-4-sulfonamide], the IC50 turned out to be 37 nM in assay [1]; 182 nM in assay [2]; 874 nM in assay [3]; 8020 nM in assay [4]; 2180 nM in assay [5]; 79 nM in assay [6]. This compound had an IC50 in assay [7] of 9 nM.

With `COc1cccc(OC)c1S(=O)(=O)Nc1noc2cc(-c3ncco3)cc(OC)c12` [Example 144, 2,6-Dimethoxy-N-(4-methoxy-6-(oxazol-2-yl)benzo[d]isoxazol-3-yl)benzenesulfonamide], the IC50 in assay [1] was determined as 57 nM; in assay [2] it was 128 nM; in assay [3], 2950 nM; in assay [4], 18800 nM; in assay [5] it was 11500 nM; in assay [6] it was 286 nM. This compound showed an IC50 in assay [7] of 261 nM.

Take `CCOCc1cc(OC)c2c(NS(=O)(=O)c3c(OC)cccc3OC)noc2c1` [Example 172]: the IC50 in assay [1] turned out to be 42 nM; in assay [2] it was 14 nM; in assay [3], 1450 nM; in assay [4], 29200 nM; in assay [5], 9070 nM; in assay [6], 426 nM. The IC50 in assay [7] turned out to be 37 nM.

For the compound `COc1cccc(OC)c1S(=O)(=O)Nc1noc2cc(-c3ncco3)ccc12` [Example 147, 2,6-Dimethoxy-N-(6-(oxazol-2-yl)benzo[d]isoxazol-3-yl)benzenesulfonamide], the IC50 was over 125000 nM in assay [1]; over 10000 nM in assay [2]; over 40000 nM in assay [3]; over 40000 nM in assay [4]; over 125000 nM in assay [5]; over 125000 nM in assay [6]. The compound further came in with an IC50 in assay [7] of 93600 nM.

For `COc1ccccc1-c1cc(OC)c2c(NS(=O)(=O)c3c(OC)cccc3OC)noc2c1` [Example 176, 2,6-Dimethoxy-N-(4-methoxy-6-(2-methoxyphenyl)benzo[d]isoxazol-3-yl)benzenesulfonamide], the half-inhibitory concentration (IC50) was 121 nM in assay [1]; 685 nM in assay [2]; 1070 nM in assay [3]; 7610 nM in assay [4]; 5670 nM in assay [5]; 138 nM in assay [6]. The compound further registered an IC50 in assay [7] of 30 nM.
